Measurements taken from the supplement of paper PMC10307832.

Assays:
Assay in all cases: relative viability (nuclei count vs DMSO), 5 days (fraction); higher = more cells survive
[1] = compound: CC1=C(C=C(C=C1)NC(=O)C2=CC(=CC=C2)C(C)(C)C#N)NC3=CC4=C(C=C3)N=CN(C4=O)C [AZ628] + CC(C)C[C@H](NC(=O)[C@H](Cc1ccccc1)NC(=O)c1cnccn1)B(O)O [Bortezomib] (partner 0.002 µM)
Summary of the method: (§1)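 Dosing by pin tool came one day after lung cancer cell lines were seeded in 1536-well plates, using either one drug or a fixed anchor-drug dose plus five library-drug doses (not always all listed) in √10 steps. After 5 days, nuclei were counted on 4× images. Relative viability is treated-well nuclei count divided by vehicle-well nuclei count, and values are medians of duplicate plates.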

[2] = compound: C[As](C)SC[C@H](NC(=O)CC[C@H](N)C(=O)O)C(=O)NCC(=O)O [Darinaparsin] + COc1cc2c(Oc3ccc(NC(=O)C4(C(=O)Nc5ccc(F)cc5)CC4)cc3F)ccnc2cc1OCCCN1CCOCC1 [Foretinib] (partner 0.25 µM)
Summary of the method: as §1

[3] = compound: C[As](C)SC[C@H](NC(=O)CC[C@H](N)C(=O)O)C(=O)NCC(=O)O [Darinaparsin] + CS(=O)(=O)CCNCc1ccc(-c2ccc3ncnc(Nc4ccc(OCc5cccc(F)c5)c(Cl)c4)c3c2)o1 [Lapatinib] (partner 2 µM)
Summary of the method: as §1

[4] = compound: C[As](C)SC[C@H](NC(=O)CC[C@H](N)C(=O)O)C(=O)NCC(=O)O [Darinaparsin] + C[C@@H](Oc1cc(-c2cnn(C3CCNCC3)c2)cnc1N)c1c(Cl)ccc(F)c1Cl [Crizotinib] (partner 1 µM)
Summary of the method: as §1

| Cell Line | relative viability ([1]; first compound 0.08 µM) | relative viability ([1]; first compound 0.253 µM) | relative viability ([1]; first compound 0.8 µM) | relative viability ([1]; first compound 2.53 µM) | relative viability ([1]; first compound 8 µM) | relative viability ([2]; first compound 0.08 µM) | relative viability ([2]; first compound 0.8 µM) | relative viability ([2]; first compound 2.53 µM) | relative viability ([2]; first compound 8 µM) | relative viability ([3]; first compound 0.08 µM) | relative viability ([3]; first compound 0.8 µM) | relative viability ([3]; first compound 2.53 µM) | relative viability ([3]; first compound 8 µM) | relative viability ([4]; first compound 0.08 µM) | relative viability ([4]; first compound 0.8 µM) | relative viability ([4]; first compound 2.53 µM) | relative viability ([4]; first compound 8 µM) |
| --- | --- | --- | --- | --- | --- | --- | --- | --- | --- | --- | --- | --- | --- | --- | --- | --- | --- |
| UMC-11 | 0.935 | 0.571 | 0.694 | 0.739 | 0.666 | 1.16 | 1.03 | 0.974 | 1.25 | 1.22 | 0.977 | 0.928 | 1.05 | 0.678 | 0.577 | 0.407 | 0.559 |
| LCLC-103H | 0.932 | 1.13 | 1.09 | 1.02 | 1.18 | 0.858 | 0.745 | 0.626 | 0.858 | – | – | – | – | 1.12 | 1.04 | 0.979 | 1.03 |
| LU99A | 1.15 | 1.21 | 1.31 | 1.07 | 0.451 | 0.833 | 0.703 | 0.806 | 0.819 | 1.03 | 0.942 | 0.923 | 1.22 | 0.626 | 0.574 | 0.461 | 0.593 |
| LXF-289 | 0.994 | 1.03 | 0.915 | 0.917 | 0.648 | 1.07 | 0.994 | 0.946 | 1.1 | 0.968 | 0.874 | 0.765 | 1.08 | 0.855 | 0.814 | 0.682 | 0.906 |
| EPLC-272H | 0.87 | 0.803 | 0.797 | 0.525 | 0.877 | – | 0.658 | 0.619 | 0.814 | 1.02 | 0.935 | 0.923 | 0.93 | 1.02 | 0.529 | 0.649 | 0.89 |
| LOU-NH91 | 0.481 | 0.478 | 0.485 | 0.466 | 0.453 | 0.926 | 0.92 | 0.961 | 0.954 | 0.848 | 0.647 | 0.705 | 0.795 | 0.779 | 0.759 | 0.75 | 0.737 |
| HCC-44 | 0.904 | 0.915 | 1.09 | 1.01 | 0.758 | – | – | – | – | 1.24 | 1.04 | 0.903 | 1.08 | 0.875 | 0.872 | 0.618 | 0.929 |
| NCI-H1651 | 1.03 | 0.903 | 0.897 | 0.953 | 0.887 | 0.951 | 0.885 | 0.851 | 0.777 | 1.01 | 0.881 | 0.759 | 1.09 | 0.87 | 0.895 | 0.845 | 1.07 |
| NCI-H1915 | 0.939 | 1.02 | 0.771 | 0.598 | 0.716 | 1.2 | 1.08 | 0.958 | 1.25 | 0.996 | 0.888 | 0.932 | 1.18 | 1.06 | 0.839 | 0.795 | 1.13 |
| NCI-H2009 | 0.939 | 0.881 | 0.65 | 0.689 | 0.295 | 0.435 | 1.18 | 1.15 | 1.33 | 0.992 | 0.93 | 0.888 | 0.915 | 1.09 | 0.991 | 0.953 | 1.02 |
| COR-L 105 | 1.01 | 0.978 | 0.885 | 0.867 | 0.544 | 1.12 | 1.2 | 1.1 | 1.04 | 0.388 | 0.388 | – | 0.349 | 0.745 | 0.687 | – | 0.866 |
| ABC-1 | 0.307 | 0.314 | 0.364 | 0.344 | 0.315 | 1.36 | 0.995 | 1.18 | 1.08 | 1.11 | 1.18 | 1.16 | 1.47 | 1.21 | 1.16 | 0.875 | 1.29 |
| NCI-H1793 | – | – | – | – | – | 0.766 | 0.77 | 0.524 | 0.829 | 0.675 | 0.632 | 0.902 | 0.916 | – | – | – | – |
| NCI-H1792 | 1.06 | 0.925 | 0.857 | 0.923 | 0.555 | – | – | – | – | 1.26 | 0.83 | 0.696 | 0.927 | 1.95 | 0.989 | 0.654 | 1.34 |
| ChaGo-K-1 | 0.987 | – | 0.85 | 1.11 | 1.15 | 0.962 | 0.97 | 0.873 | 1.13 | – | – | – | – | 1.38 | 1.14 | 0.924 | 1.1 |
| NCI-H2342 | – | – | – | – | – | 0.959 | 1.04 | 1.03 | 1.17 | – | – | – | – | – | – | – | – |
| NCI-H1975 | 0.409 | 0.343 | 0.303 | 0.281 | 0.241 | 1.13 | 0.994 | 0.975 | 1.12 | 0.998 | 0.895 | 0.66 | 1.25 | 1.13 | 1.12 | 0.879 | 1.42 |
| CAL-12T | 0.948 | – | 0.747 | 0.835 | 0.779 | 1.23 | 0.983 | 1.12 | 1.14 | 0.698 | 0.557 | 0.775 | 0.68 | 0.902 | 0.752 | 0.391 | 0.707 |
| NCI-H358 | – | – | – | – | – | 0.758 | 0.693 | 0.648 | 0.799 | 0.463 | 0.412 | 0.422 | 0.52 | 0.566 | 0.499 | 0.576 | 0.673 |
| NCI-H3122 | 0.987 | 0.887 | 0.723 | 0.696 | 0.444 | 1.03 | 0.964 | 0.94 | 0.789 | 1.16 | 0.986 | 1.03 | 1.14 | 0.336 | 0.258 | 0.251 | 0.289 |
| NCI-H2347 | 0.859 | 0.962 | 0.721 | 0.828 | 0.623 | 0.859 | 1.01 | 0.994 | 1.05 | 1.23 | 0.883 | 0.919 | 1.1 | 0.709 | 0.703 | 0.747 | 0.696 |
